# Laboratory results as given in US20250074871A1, “PHENETHYLAMINES AND METHODS OF PREPARATION THEREOF” (priority 2022, published 2025).
# Where two headings read alike, the source gives them in different places.
# Key:
# 5-HT2A receptor = molecular target: T1, 5-HT2A receptor (Homo sapiens, UniProt P28223); experiment: 5-HT2A Gq dissociation BRET functional assay; type: cell-based; settings: for 5-HT2A BRET Eff %: normalized to % 5-HT stimulation
# T1 construct: expressed in transfected cells; host or cells: HEK293T
# 5-HT2C receptor = molecular target: T2, 5-HT2C receptor (Homo sapiens, UniProt P28335); experiment: cell-based; type: cell-based; settings: Table 2; for EC50: at least three replicate trials, read-out: 5-HT2C BRET EC50; for 5-HT2C BRET Eff %: normalized to % 5-HT stimulation
# T2 construct: expressed in transfected cells; host or cells: HEK293T
# T2 sequence (P28335 33-458): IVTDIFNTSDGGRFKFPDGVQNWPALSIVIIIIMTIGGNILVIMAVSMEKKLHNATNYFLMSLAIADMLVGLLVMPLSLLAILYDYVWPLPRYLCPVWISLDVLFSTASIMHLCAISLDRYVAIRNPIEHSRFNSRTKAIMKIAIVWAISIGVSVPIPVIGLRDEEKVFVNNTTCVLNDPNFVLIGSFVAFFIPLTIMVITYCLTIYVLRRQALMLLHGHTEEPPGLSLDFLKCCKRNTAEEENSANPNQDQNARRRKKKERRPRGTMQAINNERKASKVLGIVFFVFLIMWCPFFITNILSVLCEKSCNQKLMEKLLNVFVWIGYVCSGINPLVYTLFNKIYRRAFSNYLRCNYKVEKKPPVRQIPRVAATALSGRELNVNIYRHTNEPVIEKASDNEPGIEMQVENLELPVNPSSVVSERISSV
# mice = experiment: head-twitch response (HTR) in mice; type: in vivo, male C57BL/6J mice; settings: Mus musculus; mice
# Description: As used herein and unless otherwise specified, the term “HTR” refers to head-twitch response, which is a measurement of 5-HT2A activation in vivo.
# As used herein and unless otherwise specified, the term “mice” refers to male C57BL/6J mice (6-8 weeks old).
# HTR was assessed using a head-mounted neodymium magnet and a magnetometer detection coil, as described in Halberstadt et al., Psychopharmacology (Berl.), 2013, 227(4): 727-739. Table 8 below summarizes the ED50 in head twitch in mice of various compounds disclosed herein as compared to psilocybin. FIG. 3 illustrates the HTR relative to dose for compound 109: […]
# 5-HT2B receptor = molecular target: T3, 5-HT2B receptor (Homo sapiens, UniProt P41595); experiment: 5-HT2B Gq dissociation BRET functional assay; type: cell-based; settings: for EC50 / 5-HT2B BRET Eff % / 5-HT2B BRET EC50 (nM) / Eff %: Table 2; for EC50: at least three replicate trials; for 5-HT2B BRET Eff %: normalized to % 5-HT stimulation
# T3 construct: expressed in transfected cells; host or cells: HEK293T
# [1] = molecular target: T4, human ether-a-go-go-related gene (hERG) K+ channel (Homo sapiens, UniProt Q12809); experiment: Eurofins hERG Qube APC Assay; type: cell-based; settings: for IC50 (hERG)/EC50 (5-HT2A) ratio: Table 4; for hERG risk potential: based on IC50 (hERG)/EC50 (5-HT2A) ratio
# T4 construct: Eurofins
# Excerpt: As used herein and unless otherwise specified, the term “hERG risk” refers to the risk of a compound potentially inhibiting the human ether-a-go-go-related gene (hERG) K^+ channel, thereby leading to QT prolongation.
# As a result of, many compounds disclosed in Table 1 and Table 2 were screened for the potential of “hERG risk” using pharmacological assays (e.g. Eurofins™ hERG Qube APC Assay). […].
# 5-HT1F = molecular target: T5, 5-HT1F (Homo sapiens, UniProt P30939); experiment: 5-HT receptor activity panel (Table 3); type: cell-based; settings: Table 3
# T5 sequence (P30939 1-366): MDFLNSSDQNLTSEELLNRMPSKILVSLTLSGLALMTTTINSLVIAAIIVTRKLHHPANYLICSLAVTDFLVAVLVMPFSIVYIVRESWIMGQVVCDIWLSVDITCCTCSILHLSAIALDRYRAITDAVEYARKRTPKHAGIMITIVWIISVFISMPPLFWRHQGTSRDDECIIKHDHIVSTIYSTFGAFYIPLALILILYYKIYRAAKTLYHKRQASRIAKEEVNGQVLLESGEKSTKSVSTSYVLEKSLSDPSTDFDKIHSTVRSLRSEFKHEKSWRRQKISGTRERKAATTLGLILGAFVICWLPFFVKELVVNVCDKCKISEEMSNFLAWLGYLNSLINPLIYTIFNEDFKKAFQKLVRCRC
# 5-HT1E = 5-HT1E (Homo sapiens, UniProt P28566); experiment: 5-HT receptor activity panel (Table 3); type: cell-based
# 5-HT1D = 5-HT1D (Homo sapiens, UniProt P28221); experiment: 5-HT receptor activity panel (Table 3); type: cell-based
# 5-HT1B = 5-HT1B (Homo sapiens, UniProt P28222); experiment: 5-HT receptor activity panel (Table 3); type: cell-based
# 5-HT6 = 5-HT6 (Homo sapiens, UniProt P50406); experiment: 5-HT receptor activity panel (Table 3); type: cell-based; settings: Table 3
# 5-HT4 = 5-HT4 (Homo sapiens, UniProt Q13639); experiment: 5-HT receptor activity panel (Table 3); type: cell-based
# 5-HT7 = 5-HT7 (Homo sapiens, UniProt P34969); experiment: 5-HT receptor activity panel (Table 3); type: cell-based
# 5-HT1A = molecular target: T6, 5-HT1A (Homo sapiens, UniProt P08908); experiment: 5-HT receptor activity panel (Table 3); type: cell-based
# T6 sequence (P08908 1-422): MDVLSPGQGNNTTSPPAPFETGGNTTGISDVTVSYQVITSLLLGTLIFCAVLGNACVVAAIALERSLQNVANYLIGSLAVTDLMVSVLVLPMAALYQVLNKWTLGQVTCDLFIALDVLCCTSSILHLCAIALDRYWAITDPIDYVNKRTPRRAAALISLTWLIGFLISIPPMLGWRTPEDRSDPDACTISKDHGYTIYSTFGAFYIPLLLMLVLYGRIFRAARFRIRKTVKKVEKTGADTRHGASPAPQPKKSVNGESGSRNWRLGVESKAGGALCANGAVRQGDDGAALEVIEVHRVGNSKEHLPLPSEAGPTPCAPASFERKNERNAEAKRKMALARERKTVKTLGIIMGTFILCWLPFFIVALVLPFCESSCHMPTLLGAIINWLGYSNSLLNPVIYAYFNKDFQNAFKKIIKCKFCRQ
# 5-HT5A = 5-HT5A (Homo sapiens, UniProt P47898); experiment: 5-HT receptor activity panel (Table 3); type: cell-based
# [2] = 5-HT2A BRET EC50 (nM), Table 2, at least three replicate trials
# [3] = EC50 BRET 2A, Table 4, unit inferred
# T3 sequence (P41595 whole entry): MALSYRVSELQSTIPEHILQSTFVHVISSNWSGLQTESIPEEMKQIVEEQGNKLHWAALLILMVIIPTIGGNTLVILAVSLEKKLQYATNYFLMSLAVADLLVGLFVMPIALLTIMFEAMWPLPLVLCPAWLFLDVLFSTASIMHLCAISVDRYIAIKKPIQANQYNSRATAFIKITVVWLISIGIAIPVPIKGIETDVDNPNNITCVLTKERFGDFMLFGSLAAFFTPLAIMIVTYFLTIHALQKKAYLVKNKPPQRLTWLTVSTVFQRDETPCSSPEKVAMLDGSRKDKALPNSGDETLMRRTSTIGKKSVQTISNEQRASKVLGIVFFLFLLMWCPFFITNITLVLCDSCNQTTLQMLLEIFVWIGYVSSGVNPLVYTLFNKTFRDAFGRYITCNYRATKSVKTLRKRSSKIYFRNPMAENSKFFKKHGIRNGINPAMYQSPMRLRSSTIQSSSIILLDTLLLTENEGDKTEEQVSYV
# T1 sequence (P28223 whole entry): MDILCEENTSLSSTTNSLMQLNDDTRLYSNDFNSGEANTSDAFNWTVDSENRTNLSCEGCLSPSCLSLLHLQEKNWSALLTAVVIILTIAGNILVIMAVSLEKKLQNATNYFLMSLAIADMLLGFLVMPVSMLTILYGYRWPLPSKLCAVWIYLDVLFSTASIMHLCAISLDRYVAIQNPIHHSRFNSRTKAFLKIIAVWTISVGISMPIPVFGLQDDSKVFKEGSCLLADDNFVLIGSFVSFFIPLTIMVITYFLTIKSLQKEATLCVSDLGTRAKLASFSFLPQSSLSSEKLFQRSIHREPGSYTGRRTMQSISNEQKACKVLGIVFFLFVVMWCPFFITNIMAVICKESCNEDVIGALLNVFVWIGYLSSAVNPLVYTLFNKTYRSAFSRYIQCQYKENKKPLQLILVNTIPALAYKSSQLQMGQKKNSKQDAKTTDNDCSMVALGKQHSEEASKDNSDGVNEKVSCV
# T4 sequence (Q12809 whole entry): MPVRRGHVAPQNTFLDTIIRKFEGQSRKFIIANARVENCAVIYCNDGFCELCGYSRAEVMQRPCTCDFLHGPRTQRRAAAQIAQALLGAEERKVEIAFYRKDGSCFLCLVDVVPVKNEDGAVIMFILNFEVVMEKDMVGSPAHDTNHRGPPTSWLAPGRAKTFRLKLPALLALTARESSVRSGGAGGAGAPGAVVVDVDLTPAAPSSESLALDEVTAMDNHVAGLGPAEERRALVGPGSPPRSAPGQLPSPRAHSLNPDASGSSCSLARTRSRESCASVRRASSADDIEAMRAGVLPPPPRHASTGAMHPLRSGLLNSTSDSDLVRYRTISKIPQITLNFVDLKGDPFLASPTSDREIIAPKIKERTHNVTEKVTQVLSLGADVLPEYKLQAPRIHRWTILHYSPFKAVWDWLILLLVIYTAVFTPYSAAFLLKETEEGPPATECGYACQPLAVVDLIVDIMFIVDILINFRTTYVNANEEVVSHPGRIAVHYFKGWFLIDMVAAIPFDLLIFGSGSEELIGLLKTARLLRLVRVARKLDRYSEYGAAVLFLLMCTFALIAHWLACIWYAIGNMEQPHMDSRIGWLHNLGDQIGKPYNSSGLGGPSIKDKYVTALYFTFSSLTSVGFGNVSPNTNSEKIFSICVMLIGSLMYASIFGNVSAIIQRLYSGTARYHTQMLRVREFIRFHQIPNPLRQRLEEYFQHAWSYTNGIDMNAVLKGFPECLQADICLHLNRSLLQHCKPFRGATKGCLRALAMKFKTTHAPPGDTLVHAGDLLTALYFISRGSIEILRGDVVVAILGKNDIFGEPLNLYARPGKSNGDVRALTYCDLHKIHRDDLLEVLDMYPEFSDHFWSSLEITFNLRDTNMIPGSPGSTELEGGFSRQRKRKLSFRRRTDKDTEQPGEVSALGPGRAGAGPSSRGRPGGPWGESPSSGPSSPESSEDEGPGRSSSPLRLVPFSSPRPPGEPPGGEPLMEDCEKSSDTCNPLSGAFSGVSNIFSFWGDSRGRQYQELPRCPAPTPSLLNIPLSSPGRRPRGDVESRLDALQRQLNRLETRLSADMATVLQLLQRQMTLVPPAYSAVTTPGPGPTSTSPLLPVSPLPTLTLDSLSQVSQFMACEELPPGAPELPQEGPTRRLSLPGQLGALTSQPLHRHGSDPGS
# Chain of 5-HT6 (P50406 whole entry, species assumed): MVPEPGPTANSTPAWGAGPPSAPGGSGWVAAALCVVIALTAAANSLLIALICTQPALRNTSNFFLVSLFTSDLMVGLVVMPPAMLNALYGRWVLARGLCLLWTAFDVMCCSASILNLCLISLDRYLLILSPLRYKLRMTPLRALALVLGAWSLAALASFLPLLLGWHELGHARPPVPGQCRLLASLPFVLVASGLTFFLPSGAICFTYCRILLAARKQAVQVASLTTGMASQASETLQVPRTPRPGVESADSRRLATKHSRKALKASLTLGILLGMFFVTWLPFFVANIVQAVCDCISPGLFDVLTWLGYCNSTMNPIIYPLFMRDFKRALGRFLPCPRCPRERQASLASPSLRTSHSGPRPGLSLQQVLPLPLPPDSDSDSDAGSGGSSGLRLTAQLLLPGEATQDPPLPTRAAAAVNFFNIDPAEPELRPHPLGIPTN
# Chain of 5-HT1D (P28221 whole entry, species assumed): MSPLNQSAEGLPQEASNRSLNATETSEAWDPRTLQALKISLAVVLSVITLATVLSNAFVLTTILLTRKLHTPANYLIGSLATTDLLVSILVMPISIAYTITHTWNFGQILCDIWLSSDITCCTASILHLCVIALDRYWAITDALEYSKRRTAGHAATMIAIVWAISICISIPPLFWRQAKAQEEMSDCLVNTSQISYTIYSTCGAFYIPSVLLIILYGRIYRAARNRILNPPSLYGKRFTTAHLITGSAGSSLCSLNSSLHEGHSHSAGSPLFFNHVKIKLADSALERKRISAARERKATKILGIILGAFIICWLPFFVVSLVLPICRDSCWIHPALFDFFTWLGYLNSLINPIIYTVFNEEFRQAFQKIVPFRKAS
# Chain of 5-HT4 (Q13639 whole entry, species assumed): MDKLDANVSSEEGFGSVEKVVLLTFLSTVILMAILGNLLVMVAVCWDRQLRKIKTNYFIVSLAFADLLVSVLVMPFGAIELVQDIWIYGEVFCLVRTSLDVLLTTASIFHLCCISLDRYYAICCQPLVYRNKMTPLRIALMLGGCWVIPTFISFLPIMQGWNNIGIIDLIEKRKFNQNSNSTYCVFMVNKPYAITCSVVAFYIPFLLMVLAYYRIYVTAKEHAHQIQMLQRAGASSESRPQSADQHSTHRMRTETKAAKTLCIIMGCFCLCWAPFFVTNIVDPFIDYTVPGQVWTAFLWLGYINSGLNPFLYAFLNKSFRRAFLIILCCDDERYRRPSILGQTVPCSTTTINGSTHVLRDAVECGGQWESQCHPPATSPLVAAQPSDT
# Chain of 5-HT1E (P28566 whole entry, species assumed): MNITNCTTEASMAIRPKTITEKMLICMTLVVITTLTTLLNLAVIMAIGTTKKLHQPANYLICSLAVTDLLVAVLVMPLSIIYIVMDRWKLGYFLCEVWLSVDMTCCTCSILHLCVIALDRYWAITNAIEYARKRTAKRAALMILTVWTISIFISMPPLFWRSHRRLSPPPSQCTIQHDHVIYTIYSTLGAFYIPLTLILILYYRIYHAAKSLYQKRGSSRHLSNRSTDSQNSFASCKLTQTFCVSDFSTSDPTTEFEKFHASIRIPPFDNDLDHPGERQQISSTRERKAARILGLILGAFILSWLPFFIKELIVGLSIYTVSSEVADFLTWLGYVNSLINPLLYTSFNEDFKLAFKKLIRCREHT
# Chain of 5-HT7 (P34969 whole entry, species assumed): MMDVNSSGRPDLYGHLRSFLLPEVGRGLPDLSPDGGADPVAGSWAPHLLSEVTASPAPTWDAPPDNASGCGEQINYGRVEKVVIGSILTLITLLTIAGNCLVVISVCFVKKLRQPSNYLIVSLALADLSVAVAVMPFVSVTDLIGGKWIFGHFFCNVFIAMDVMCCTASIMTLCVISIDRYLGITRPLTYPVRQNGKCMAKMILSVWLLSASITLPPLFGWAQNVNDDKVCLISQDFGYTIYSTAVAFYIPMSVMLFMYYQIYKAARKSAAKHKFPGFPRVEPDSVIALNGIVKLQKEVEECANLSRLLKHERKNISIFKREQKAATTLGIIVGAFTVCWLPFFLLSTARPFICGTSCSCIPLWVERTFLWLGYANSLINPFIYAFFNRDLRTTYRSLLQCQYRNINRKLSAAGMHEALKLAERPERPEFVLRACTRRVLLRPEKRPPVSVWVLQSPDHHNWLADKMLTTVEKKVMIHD
# Chain of 5-HT5A (P47898 whole entry, species assumed): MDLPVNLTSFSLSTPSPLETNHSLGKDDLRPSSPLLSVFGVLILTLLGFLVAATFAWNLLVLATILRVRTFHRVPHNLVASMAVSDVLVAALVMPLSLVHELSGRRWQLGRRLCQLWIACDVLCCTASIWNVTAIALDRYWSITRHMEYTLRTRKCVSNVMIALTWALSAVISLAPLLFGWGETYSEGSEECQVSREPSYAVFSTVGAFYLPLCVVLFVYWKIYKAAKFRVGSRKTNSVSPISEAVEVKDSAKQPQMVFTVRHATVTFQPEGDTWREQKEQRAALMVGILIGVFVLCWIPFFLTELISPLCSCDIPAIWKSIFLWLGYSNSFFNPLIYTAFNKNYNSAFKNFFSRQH
# Chain of 5-HT1B (P28222 whole entry, species assumed): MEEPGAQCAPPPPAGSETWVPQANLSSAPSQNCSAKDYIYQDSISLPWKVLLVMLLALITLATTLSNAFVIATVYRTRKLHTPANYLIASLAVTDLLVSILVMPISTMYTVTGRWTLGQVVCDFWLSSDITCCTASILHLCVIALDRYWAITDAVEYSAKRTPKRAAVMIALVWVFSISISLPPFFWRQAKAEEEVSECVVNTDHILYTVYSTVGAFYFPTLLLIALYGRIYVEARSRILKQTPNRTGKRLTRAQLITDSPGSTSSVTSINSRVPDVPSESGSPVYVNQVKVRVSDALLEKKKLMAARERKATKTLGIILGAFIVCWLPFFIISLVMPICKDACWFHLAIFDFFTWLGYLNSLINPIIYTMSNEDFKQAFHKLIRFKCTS
SMILES,EC50 (5-HT2A receptor; [2]) [nM],EC50 (5-HT2A receptor; [3]) [nM],5-HT2A BRET Eff % (5-HT2A receptor; Table 2) [%],EC50 (5-HT2C receptor) [nM],5-HT2C BRET Eff % (5-HT2C receptor) [%],ED50 (mice) [mg/kg],EC50 (5-HT2B receptor; 5-HT2B BRET EC50 (nM)) [nM],5-HT2B BRET Eff % (5-HT2B receptor) [%],IC50 [1] [nM],IC50 (hERG)/EC50 (5-HT2A) ratio [1],5-HT2B BRET EC50 (nM) / Eff % (5-HT2B receptor),also measured
COc1cc(C#N)ccc1CCNCc1ccccc1OC [Cpd #27],4.2,4.2,96,15.9,109,3,423,66,2000,476,,
COc1cc(C#N)ccc1CCNCc1cccc2c1OCO2 [Cpd #65],19.7,19.7,84,496,97,,,,2000,102,Inactive,hERG risk potential [1]: High (compounds exhibiting a IC50 (hERG) /EC50 (5-HT2A) ratio of less than or equal to 150 are generally indicative of high hERG risk potential)
COc1cc(C#N)ccc1CCNCc1ccccc1SC [Cpd #108],2.4,2.4,99,16,103,7.23,2380,128,1780,742,,
COc1cc(C#N)c(F)cc1CCNCc1ccccc1O [Cpd #117],3.8,3.8,97,40.8,115,2.09,4360,68,900,237,,
CSc1ccc(CCNCc2ccccc2O)c(O)c1 [Cpd #122],1.6,1.4,92,3.6,108,,,,790,564,inactive,
Oc1cc(Cl)ccc1CCNCc1ccccc1O [Cpd #131],2.4,2.1,93,1.8,103,1.24,,,1310,624,Inactive,
"CN(C)CCc1c[nH]c2cccc(OP(=O)(O)O)c12 [Psilocybin, psilocybin, reference compound]",,,,,,0.38,,,,,,
"Oc1ccccc1CNCC(O)c1ccc(C(F)(F)F)cc1OCc1ccccc1 (stereo not shown) [Reference Compound 1a, reference compound]",,,91,326,105,,,56,2300,5,,"EC50 (5-HT2A receptor; Table 2, at least three replicate trials, read-out: 5-HT2A BRET EC50): 451 nM; EC50 (5-HT2A receptor; Table 4, unit inferred, read-out: EC50 BRET 2A): 451 nM; EC50 (5-HT2B receptor; read-out: 5-HT2B BRET EC50): 342 nM; hERG risk potential [1]: High (compounds exhibiting a IC50 (hERG) /EC50 (5-HT2A) ratio of less than or equal to 150 are generally indicative of high hERG risk potential)"
"CN(C)CCc1c[nH]c2cccc(O)c12 [psilocin, reference compound]",,,82,,,,,63,,,,"5-HT2A Eff, % (5-HT2A receptor; Table 3 panel): 80%; 5-HT1F Eff, % (5-HT1F): 93%; EC50 (5-HT1E): 10.4 nM; 5-HT1E Eff, % (5-HT1E; Table 3): 90%; EC50 (5-HT1D): 2.2 nM; 5-HT1D Eff, % (5-HT1D; Table 3): 102%; EC50 (5-HT1B): 14.3 nM; 5-HT1B Eff, % (5-HT1B; Table 3): 94%; 5-HT6 Eff, % (5-HT6): 74%; EC50 (5-HT6; read-out: 5-HT6 EC50): 182 nM; EC50 (5-HT4): 563 nM; 5-HT4 Eff, % (5-HT4; Table 3): 81%; 5-HT2B Eff, % (5-HT2B receptor; Table 3 panel): 32%; EC50 (5-HT7): 525 nM; 5-HT7 Eff, % (5-HT7; Table 3): 86%; EC50 (5-HT1A): 46.9 nM; 5-HT1A Eff, % (5-HT1A; Table 3): 93%; EC50 (5-HT5A): 349 nM; 5-HT5A Eff, % (5-HT5A; Table 3): 48%"
